Laboratory results taken from US9669028B2, “Substituted 5-(pyrazin-2-yl)-1H-pyrazolo [3, 4-B] pyridine and pyrazolo [3, 4-B] pyridine derivatives as protein kinase inhibitors” (Arrien Pharmaceuticals LLC, priority 2011, dated 2017).

Legend:
Assay type in all cases: biochemical
LRRK2 = LRRK2 (Homo sapiens (Human), UniProt Q5S007); test: LRRK2 Kinase Assay; conditions: 10 μM ATP
Description: (§1) Briefly, specific kinase/substrate pairs along with required cofactors were prepared in reaction buffer; 20 mM Hepes (pH 7.5), 10 mM MgCl2, 1 mM EGTA, 0.02% Brij35, 0.02 mg/ml BSA, 0.1 mM Na3VO4, 2 mM DTT, 1% DMSO. Compounds were delivered into the reaction, followed ˜20 min later by addition of a mixture of ATP (Sigma) and 33P ATP (PerkinElmer) to a final concentration of 10 μM. […] IC50 values and curve fits were obtained using Prism (GraphPad Software). Kinome tree representations were prepared using Kinome Mapper (http://www.reactionbiology.com/apps/kinome/mapper/Launch Kinome.htm).
For the wild type LRRK the 2×LRRK2/ERM (LRRKtide) mixture was prepared in 50 mM Tris pH 8.5, 0.01% BRIJ-35, 10 mM MgCl2, 1 mM EGTA, 0.02% NaN3. […] After 1 hour Kinase Reaction incubation, 5 μL of Detection Mix was added.

DYRK1A = DYRK1A (Homo sapiens (Human), UniProt Q13627); test: In vitro DYRK1A inhibition assay
Description: as §1
The 2×DYRK1A/Ser/Thr 18 mixture was prepared in 50 mM HEPES pH 7.5, 0.01% BRIJ-35, 10 mM MgCl2, 1 mM EGTA.

LRRK2 G2019S = LRRK2 G2019S (Homo sapiens (Human), UniProt Q5S007, G2019S); test: LRRK2 G2019S Kinase Assay; conditions: 10 μM ATP
Chain of LRRK2 G2019S (Q5S007 970-2527 G2019S): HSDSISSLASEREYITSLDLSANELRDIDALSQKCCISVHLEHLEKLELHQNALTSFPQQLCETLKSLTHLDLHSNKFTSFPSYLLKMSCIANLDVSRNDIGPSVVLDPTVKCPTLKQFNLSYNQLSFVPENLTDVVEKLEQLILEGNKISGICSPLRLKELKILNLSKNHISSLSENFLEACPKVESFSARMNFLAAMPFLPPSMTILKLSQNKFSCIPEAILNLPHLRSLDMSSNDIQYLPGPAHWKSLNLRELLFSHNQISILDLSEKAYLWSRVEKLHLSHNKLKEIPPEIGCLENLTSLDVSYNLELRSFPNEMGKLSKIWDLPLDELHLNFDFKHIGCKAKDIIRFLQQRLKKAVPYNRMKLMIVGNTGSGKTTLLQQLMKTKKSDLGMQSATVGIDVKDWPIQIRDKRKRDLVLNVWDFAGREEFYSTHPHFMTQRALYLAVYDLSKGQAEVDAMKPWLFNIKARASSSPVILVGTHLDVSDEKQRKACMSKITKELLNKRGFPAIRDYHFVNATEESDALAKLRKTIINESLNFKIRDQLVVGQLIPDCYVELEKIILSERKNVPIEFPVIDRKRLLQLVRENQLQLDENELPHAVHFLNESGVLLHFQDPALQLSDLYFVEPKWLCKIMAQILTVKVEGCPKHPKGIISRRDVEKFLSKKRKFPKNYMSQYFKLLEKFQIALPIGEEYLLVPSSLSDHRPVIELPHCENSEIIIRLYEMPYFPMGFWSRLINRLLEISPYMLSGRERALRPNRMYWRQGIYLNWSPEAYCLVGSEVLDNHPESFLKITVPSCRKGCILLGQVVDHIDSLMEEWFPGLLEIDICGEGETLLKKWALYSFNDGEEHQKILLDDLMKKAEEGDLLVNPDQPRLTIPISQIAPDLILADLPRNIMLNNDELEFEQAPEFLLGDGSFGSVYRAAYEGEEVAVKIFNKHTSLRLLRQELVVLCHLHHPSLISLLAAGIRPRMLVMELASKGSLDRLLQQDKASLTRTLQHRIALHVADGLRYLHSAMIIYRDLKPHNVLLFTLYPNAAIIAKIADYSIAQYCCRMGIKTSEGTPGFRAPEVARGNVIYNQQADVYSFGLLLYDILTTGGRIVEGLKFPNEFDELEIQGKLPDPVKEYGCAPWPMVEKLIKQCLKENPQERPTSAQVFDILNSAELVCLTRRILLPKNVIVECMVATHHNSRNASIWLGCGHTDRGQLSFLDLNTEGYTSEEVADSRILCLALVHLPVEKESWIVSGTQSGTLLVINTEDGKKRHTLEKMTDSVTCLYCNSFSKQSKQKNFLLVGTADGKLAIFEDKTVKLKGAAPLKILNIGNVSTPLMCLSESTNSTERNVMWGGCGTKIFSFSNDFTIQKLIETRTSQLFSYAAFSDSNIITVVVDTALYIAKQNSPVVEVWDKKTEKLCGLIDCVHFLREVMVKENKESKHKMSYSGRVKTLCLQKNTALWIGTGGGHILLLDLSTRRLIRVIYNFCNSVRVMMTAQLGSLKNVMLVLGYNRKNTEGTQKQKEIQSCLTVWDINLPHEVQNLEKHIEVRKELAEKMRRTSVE
Description: Procedure: Enzyme was incubated with substrate peptide in reaction buffer in the presence and absence of test compounds or Staurosporine. All additions were done on ice, followed by the addition of ATP mix. Wells were uniformly mixed using an Eppendorff plate shaker and incubated at 30° C. for 20 min, and stopped by the addition of 5 μl of 3% phosphoric acid. Volume was increased to 100 μl by adding 0.8% phosphoric acid which was then transferred to PC filter mats (Millipore), pre-equilibrated with 70% ethanol and water. Plates were washed thrice with 100 μl 0.8% phosphoric acid and dried for an hour at 60° C. 100 μl scintillation fluid was added into each well and reading taken in Perkin Elmer TOPCOUNT beta counter. […] A validation EC50 curve was generated by plotting CPM for each Staurosporine concentration on y-axis against the Log concentration of Staurosporine (nM) on the x-axis followed by a best fit curve through the points.
After 1 hour Kinase Reaction incubation, 5 μL of Detection Mix was added.

Chain of LRRK2 (Q5S007 970-2527): as the sequence (Q5S007 970-2527 G2019S) above, with S1050G counted along it

SMILES | IC50 (LRRK2) [µM] | IC50 (DYRK1A) [µM] | IC50 (LRRK2 G2019S) [µM]
Cc1n[nH]c2ncc(-c3nccnc3N3CCCC3)cc12 [Compound 74, 3-methyl-5-(3-(pyrrolidin-1-yl)pyrazin-2-yl)-1H-pyrazolo[3,4-b]pyridine] | > 1 | – | > 1
Cc1n[nH]c2ncc(Nc3ccc(CN4CCN(C)CC4)cc3)cc12 [Compound 167, 3-methyl-N-(4-((4-methylpiperazin-1-yl)methyl)phenyl)-1H-pyrazolo[3,4-b]pyridin-5-amine] | > 1 | – | > 1
Cc1n[nH]c2ncc(Nc3cncc(Cl)n3)cc12 [Compound 171, N-(6-chloropyrazin-2-yl)-3-methyl-1H-pyrazolo[3,4-b]pyridin-5-amine] | > 1 | – | > 1
CCOC(=O)c1cccc(-c2cnc3[nH]nc(C)c3c2)c1 [Compound 119, ethyl 3-(3-methyl-1H-pyrazolo[3,4-b]pyridin-5-yl)benzoate] | > 1 | – | > 1
Cc1n[nH]c2ncc(-c3cccc(S(=O)(=O)N(C)C)c3)cc12 [Compound 111, N, N-dimethyl-3-(3-methyl-1H-pyrazolo[3,4-b]pyridin-5-yl)benzenesulfonamide] | > 1 | – | > 1
Cc1n[nH]c2ncc(-c3cnccn3)cc12 [Compound 45, 3-methyl-5-(pyrazin-2-yl)-1H-pyrazolo[3,4-b]pyridine] | > 1 | – | > 1
Cn1cc(-c2cnc3[nH]ncc3c2)cn1 [Compound 117, 5-(1-methyl-1H-pyrazol-4-yl)-1H-pyrazolo[3,4-b]pyridine] | > 1 | – | > 1
Cc1n[nH]c2ncc(Nc3ccc(N4CCN(C)CC4)c(F)c3)cc12 [Compound 170, N-(3-fluoro-4-(4-methylpiperazin-1-yl)phenyl)-3-methyl-1H-pyrazolo[3,4-b]pyridin-5-amine] | > 1 | – | > 1
Cc1n[nH]c2ncc(-c3cccc(CC#N)c3)cc12 [Compound 158, 2-(3-(3-methyl-1H-pyrazolo[3,4-b]pyridin-5-yl)phenyl)acetonitrile] | > 1 | – | > 1
C=CC(=O)Nc1cccc(-c2cnc3[nH]nc(C)c3c2)c1 [Compound 155, N-(3-(3-methyl-1H-pyrazolo[3,4-b]pyridin-5-yl)phenyl)acrylamide] | > 1 | – | > 1
Cc1n[nH]c2ncc(-c3cncc(Cl)n3)cc12 [Compound 42, 5-(6-chloropyrazin-2-yl)-3-methyl-1H-pyrazolo[3,4-b]pyridine] | > 1 | – | > 1
CC(=O)Nc1cccc(-c2cnc3[nH]nc(C)c3c2)c1 [Compound 114, N-(3-(3-methyl-1H-pyrazolo[3,4-b]pyridin-5-yl)phenyl)acetamide] | > 1 | – | > 1
Cc1n[nH]c2ncc(Nc3cccc(CN4CCN(CCO)CC4)c3)cc12 [Compound 164, 2-(4-(3-((3-methyl-1H-pyrazolo[3,4-b]pyridin-5-yl)amino)benzyl)piperazin-1-yl)ethanol] | > 1 | – | > 1
Cc1n[nH]c2ncc(-c3cccc(CN4CCN(C)CC4)c3)cc12 [Compound 123, 3-methyl-5-(3-((4-methylpiperazin-1-yl)methyl)phenyl)-1H-pyrazolo[3,4-b]pyridine] | > 1 | – | > 1
Cc1n[nH]c2ncc(-c3ccc(N4CCN(C)CC4)cc3)cc12 [Compound 161, 3-methyl-5-(4-(4-methylpiperazin-1-yl)phenyl)-1H-pyrazolo[3,4-b]pyridine] | > 1 | – | > 1
CN1CCN(C(=O)c2cncc(-c3cnc4[nH]ccc4c3)n2)CC1 [Compound 139, (6-(1H-pyrrolo[2,3-b]pyridin-5-yl)pyrazin-2-yl)(4-methylpiperazin-1-yl)methanone] | > 1 | – | > 1

More lines, now with the values ahead:

IC50 (LRRK2) [µM] | IC50 (DYRK1A) [µM] | IC50 (LRRK2 G2019S) [µM] | SMILES
< 0.5 | < 0.5 | < 0.5 | CN(CC1CCOCC1)c1cncc(-c2cnc3[nH]ccc3c2)n1 [Compound 143, N-methyl-6-(1H-pyrrolo[2,3-b]pyridin-5-yl)-N-((tetrahydro-2H-pyran-4-yl)methyl)pyrazin-2-amine]
< 0.5 | > 1 | < 0.5 | Cc1n[nH]c2ncc(-c3cncc(NCCN(C)C)n3)cc12 [Compound 68, N^1,N^1-dimethyl-N2-(6-(3-methyl-1H-pyrazolo[3,4-b]pyridin-5-yl)pyrazin-2-yl)ethane-1,2-diamine]
< 0.5 | > 0.5 | < 0.5 | Cc1n[nH]c2ncc(-c3cncc(N4CCN(CCO)CC4)n3)cc12 [Compound 59, 2-(4-(6-(3-methyl-1H-pyrazolo[3,4-b]pyridin-5-yl)pyrazin-2-yl)piperazin-1-yl)ethanol]
> 0.5 | > 0.5 | > 0.5 | Cc1n[nH]c2ncc(NC3CCCN(Cc4ccc(Cl)c(Cl)c4)C3)cc12 (stereo not shown) [Compound 28, N-(1-(3,4-Chlorobenzyl)piperidin-3-yl)-3-methyl-1H-pyrazolo[3,4-b]pyridid-5-amine]
< 0.5 | < 0.5 | < 0.5 | COc1ccccc1-c1n[nH]c2ncc(-c3ccoc3)cc12 [Compound 184, 5-(furan-3-yl)-3-(2-methoxyphenyl)-1H-pyrazolo[3,4-b]pyridine]
> 0.5 | – | > 0.5 | O=C1CN(c2cncc(-c3cnc4[nH]ccc4c3)n2)CCN1 [Compound 133, 4-(6-(1H-pyrrolo[2,3-b]pyridin-5-yl)pyrazin-2-yl)piperazin-2-one]
< 0.5 | > 1 | < 0.5 | Cc1n[nH]c2ncc(-c3cncc(N4CCN(C)CC4)n3)cc12 [Compound 65, 3-methyl-5-(6-(4-methylpiperazin-1-yl)pyrazin-2-yl)-1H-pyrazolo[3,4-b]pyridine]
> 0.5 | – | > 0.5 | CN1CC(Nc2cncc(-c3cnc4[nH]ccc4c3)n2)C1 [Compound 130, N-(1-methylazetidin-3-yl)-6-(1H-pyrrolo[2,3-b]pyridin-5-yl)pyrazin-2-amine]
> 0.5 | – | > 0.5 | Cc1n[nH]c2ncc(NC3CCCN(Cc4ccc(F)c(F)c4)C3)cc12 (stereo not shown) [Compound 26]
> 0.5 | > 1 | > 0.5 | Cc1n[nH]c2ncc(-c3cncc(N4CCC(F)(F)C4)n3)cc12 [Compound 56, 5-(6-(3,3-difluoropyrrolidin-1-yl)pyrazin-2-yl)-3-methyl-1H-pyrazolo[3,4-b]pyridine]
< 0.5 | – | < 0.5 | CN1CCC(Nc2cncc(-c3cnc4[nH]cc(Cl)c4c3)n2)CC1 [Compound 141, 6-(3-chloro-1H-pyrrolo[2,3-b]pyridin-5-yl)-N-(1-methylpiperidin-4-yl)pyrazin-2-amine]
> 0.5 | – | > 0.5 | O=C(c1cncc(-c2cnc3[nH]ccc3c2)n1)N1CCCCC1 [Compound 138, (6-(1H-pyrrolo[2,3-b]pyridin-5-yl)pyrazin-2-yl)(piperidin-1-yl)methanone]
< 0.5 | – | < 0.5 | CN1CCC(Nc2cncc(-c3cnc4[nH]ccc4c3)n2)CC1 [Compound 140, N-(1-methylpiperidin-4-yl)-6-(1H-pyrrolo[2,3-b]pyridin-5-yl)pyrazin-2-amine]
> 0.5 | – | > 0.5 | Cc1n[nH]c2ncc(-c3cncnc3NC3CCN(C)CC3)cc12 [Compound 19, 5-(3methyl-1H-pyrazolo[3,4-b]pyridine-5yl)-N-(1-methylpiperidine-4yl)pyrimidin-4-amine]
